One test addresses T1, NPFF2 (Homo sapiens, UniProt Q9Y5X5).
T1 construct: expressed in transfected cells; host or cells: NIH3T3
Description: Receptor Selection and Amplification Technology (R-SAT) functional assay, NPFF2. The conditions noted are these: Table 1; for Emax: Efficacy is relative to endogenous ligand, read-out: NPFF2 % Efficacy; for EC50 / NPFF2 pEC50: NA = No activity detectable at the highest dose tested (20 μM). The test is classed as cell-based. On the procedure: (§1) Briefly, NIH3T3 cells were grown in 96 well tissue culture plates to 70-80% confluence. Cells were transfected for 16-20 h h with plasmid DNAs using Polyfect (Qiagen Inc.) as per manufacturer's protocols. R-SAT's were generally performed with 40 ng/well of receptor and 20 ng/well of β-galactosidase plasmid DNA. All receptor and G-protein constructs used were in the pSI-derived mammalian expression vector (Promega Inc) as described previously. […] For large-scale transfections, cells were transfected for 16-20 h, then trypsinized and frozen in DMSO. Frozen cells were later thawed, plated at ˜20,000 cells per well of a 96 half-area well plate that contained drug. With both methods, cells were then grown in a humidified atmosphere with 5% ambient CO2 for five days. Media was then removed from the plates and marker gene activity was measured by the addition of the β-galactosidase substrate o-nitrophenyl β-D-galactopyranoside (ONPG, in PBS with 0.5% NP-40). The resulting colorimetric reaction was measured in a spectrophotometric plate reader (Titertek Inc.) at 420 nm. All data were analyzed using the computer program XLFit (IDBSm).
(§2) R-SAT assay was conducted as set forth in […]

Another test concerns the target NPFF1 (Homo sapiens, UniProt Q9GZQ6). Description: Receptor Selection and Amplification Technology (R-SAT) functional assay, NPFF1. The test is classed as cell-based. On the set-up: expressed in transfected cells; host or cells: NIH3T3. The conditions noted are these: R-SAT, Table 1; for Emax: Efficacy is relative to endogenous ligand, read-out: NPFF1 % Efficacy; for EC50: NA = No activity detectable at the highest dose tested (20 μM), read-out: NPFF1 pEC50 (converted). The procedure: as §1, §2

Where [1] appears, read: R-SAT, read-out: NPFF2 pEC50 (converted).

The record followed here is patent publication US20050136444A1 (priority 2003, published 2005).

The structures appear in SMILES notation. Where a name gives a salt, the structure may show the parent alone. Read-outs that look alike come from different tables or passages of the source.

Chain of NPFF1 (Q9GZQ6 whole entry, species assumed): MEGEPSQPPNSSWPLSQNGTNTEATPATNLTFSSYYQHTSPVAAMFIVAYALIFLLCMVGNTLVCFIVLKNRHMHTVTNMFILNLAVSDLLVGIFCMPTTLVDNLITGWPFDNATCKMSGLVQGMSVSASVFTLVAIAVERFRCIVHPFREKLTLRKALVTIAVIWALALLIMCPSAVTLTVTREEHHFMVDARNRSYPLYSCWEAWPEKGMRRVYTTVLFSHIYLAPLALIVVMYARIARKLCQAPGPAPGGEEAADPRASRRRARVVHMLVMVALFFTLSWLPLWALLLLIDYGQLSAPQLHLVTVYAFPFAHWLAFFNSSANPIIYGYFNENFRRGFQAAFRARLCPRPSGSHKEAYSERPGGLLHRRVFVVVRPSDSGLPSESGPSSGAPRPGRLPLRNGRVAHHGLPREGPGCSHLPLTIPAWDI
T1 sequence (Q9Y5X5 103-522): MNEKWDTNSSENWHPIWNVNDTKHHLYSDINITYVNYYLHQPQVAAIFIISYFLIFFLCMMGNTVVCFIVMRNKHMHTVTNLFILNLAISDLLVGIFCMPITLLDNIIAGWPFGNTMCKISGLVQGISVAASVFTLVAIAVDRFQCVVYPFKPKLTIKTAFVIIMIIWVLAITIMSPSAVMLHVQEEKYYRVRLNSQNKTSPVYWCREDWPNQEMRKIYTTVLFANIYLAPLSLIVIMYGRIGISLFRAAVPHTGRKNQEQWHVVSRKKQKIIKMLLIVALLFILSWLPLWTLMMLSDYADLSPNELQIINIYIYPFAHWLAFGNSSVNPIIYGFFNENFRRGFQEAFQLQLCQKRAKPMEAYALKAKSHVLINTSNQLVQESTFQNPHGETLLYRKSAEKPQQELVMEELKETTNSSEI

Consider `COc1ccc(OC)c(C=NNC(=N)N)c1` [Compound 3005, 1-(2,5-Dimethoxybenzylideneamino)guanidine Hydrochloride], for which the Emax on NPFF2 (R-SAT) was 59%; at NPFF1 it was 3%. In addition, at NPFF2 (setting [1]), the EC50 was 7.94 µM.
`N=C(N)NN=Cc1ccc2c(c1)Cc1ccccc1-2` [Compound 2028, Hydrochloride]: the EC50 on NPFF2 (NPFF2 pEC50, R-SAT) is 1.26 µM; at NPFF1, 1.58 µM. Further, the Emax on NPFF2 (R-SAT) was 68%; on NPFF1, 37%.
`CCOc1ccc(C=NNC(=N)N)cc1` [Compound 4005, 1-(4-Ethoxybenzylideneamino)guanidine Hydrochloride]: the figures for the Emax at NPFF2 (R-SAT) and at NPFF1 were 49% and 89%, respectively. For the same compound, the EC50 at NPFF2 (setting [1]) was 5.01 µM; on NPFF1, 10 µM.
Regarding `COc1cc(C=NNC(=N)N)cc(OC)c1` [Compound 2007, 1-(3,5-Dimethoxybenzylideneamino)guanidine Hydrochloride], the values for the Emax at NPFF2 (R-SAT) and at NPFF1 were 29% and 5%, respectively. Also, the EC50 on NPFF2 (setting [1]) is 3.16 µM.
Consider `CC(=NNC(=N)N)c1ccc(Cl)c(Cl)c1` [Compound 3012, 1-[1-(3,4-Dichlorophenyl)ethylideneamino]guanidine Hydrochloride], for which the figures for the Emax at NPFF2 (R-SAT) and on NPFF1 were 63% and 0%, respectively. Also, the EC50 on NPFF2 (setting [1]) is 0.251 µM.
On the same counts, the results for `CCCCCc1ccc(C=NNC(=N)N)cc1` [Compound 3022, 1-(4-n-pentylbenzylideneamino)guanidine Hydrochloride] are 55%, 13% and 1.26 µM.
Taken in the same sequence, the figures for `N=C(N)NN=Cc1cccc(C(F)(F)F)c1F` [Compound 2065, 1-[2-Fluoro-3-(trifluoromethyl)benzylideneamino]guanidine Hydrochloride] were 45%, 9% and 3.16 µM.
Turning to `CCc1ccc(C(C)=NNC(=N)N)cc1` [Compound 3020, 1-[1-(4-Ethylphenyl)ethylideneamino]guanidine Hydrochloride], the Emax at NPFF2 (R-SAT) was 115%; on NPFF1, 41%. Besides, the EC50 on NPFF2 (setting [1]) is 1.26 µM; at NPFF1, 3.98 µM.
Regarding `N=C(N)NN=Cc1cccc(-c2ccccc2C(F)(F)F)c1` [Compound 2058, 1-[3-(2-Trifluoromethylphenyl)benzylideneamino]guanidine Hydrochloride], the Emax at NPFF2 (R-SAT) came to 60%; on NPFF1, 25%. Moreover, the EC50 at NPFF2 (setting [1]) is 0.501 µM; at NPFF1, 1 µM.
Consider `COc1cccc(C=NNC(=N)N)c1OC` [Compound 4004, 1-(2,3-Dimethoxybenzylideneamino)guanidine Hydrochloride], for which the results for the Emax on NPFF2 (R-SAT) and at NPFF1 were 49% and 15%, respectively. Also, at NPFF2 (setting [1]), the EC50 is 10 µM.
On the same counts, the results for `CC(=NNC(=N)N)c1cc(C(F)(F)F)cc(C(F)(F)F)c1` [Compound 3028, 1-{1-[3,5-Bis-(trifluoromethyl)phenyl]ethylideneamino}guanidine Hydrochloride] are 23%, 9% and 1.26 µM.
`COc1ccc(OC)c(C(C)=NNC(=N)N)c1` (mixture of isomers) [Compound 3029, 1-[1-(2,5-Dimethoxyphenyl)ethylideneamino]guanidine Hydrochloride]: the Emax was 32% at NPFF2 (R-SAT) and -1% at NPFF1. Besides, on NPFF2 (setting [1]), the EC50 is 5.01 µM.
Regarding `CC(=NNC(=N)N)c1ccc(N2CCCCC2)cc1` [Compound 3039, 1-[1-(4-Piperidin-1-yl-phenyl)ethylideneamino]guanidine Hydrochloride], the Emax on NPFF2 (R-SAT) was found to be 46%; at NPFF1 it was 43%. For the same compound, the values for the EC50 on NPFF2 (setting [1]) and at NPFF1 were 0.501 µM and 0.398 µM, respectively.
Taken in the same sequence, the figures for `CN(CCC#N)c1ccc(C=NNC(=N)N)cc1` [Compound 3040, 1-{4-[Methyl-(2-cyanoethyl)amino]benzylideneamino}guanidine Hydrochloride] were 70%, 48%, 2 µM and 1.58 µM.
With `CC(=NNC(=N)N)c1ccc(Br)cc1` [Compound 3016, 1-[1-(4-Bromophenyl)ethylideneamino]guanidine Hydrochloride], the Emax turned out to be 74% at NPFF2 (R-SAT) and 16% at NPFF1. The EC50 at NPFF2 (setting [1]) is 1.58 µM.
As to `COc1ccc(C(F)(F)F)cc1C=NNC(=N)N` [Compound 2074, 1-[2-Methoxy-5-(trifluoromethyl)benzylideneamino]guanidine Hydrochloride], the Emax amounted to 77% at NPFF2 (R-SAT) and 19% on NPFF1. The EC50 at NPFF2 (setting [1]) was 2.51 µM; on NPFF1, 10 µM.
In the case of `N=C(N)NN=Cc1ccc(F)c(Br)c1` [Compound 2010, 1-(3-Bromo-4-fluorobenzylideneamino)guanidine Hydrochloride], the Emax was 53% on NPFF2 (R-SAT) and 7% at NPFF1. Also, on NPFF2 (setting [1]), the EC50 is 1.26 µM.
Take `COc1ccc(C=NNC(=N)N)cc1C(F)(F)F` [Compound 2073, 1-[4-Methoxy-3-(trifluoromethyl)benzylideneamino]guanidine Hydrochloride]: the Emax on NPFF2 (R-SAT) was determined as 51%; on NPFF1, 13%. On NPFF2 (setting [1]), the EC50 is 1.58 µM.
Consider `N=C(N)NN=Cc1ccc(C(F)(F)F)cc1` [Compound 4002, 1-[(4-Trifluoromethyl)benzylideneamino]guanidine Hydrochloride], for which the Emax on NPFF2 (R-SAT) was 80%; at NPFF1, 20%. The EC50 on NPFF2 (setting [1]) was 2.51 µM; on NPFF1 it was 3.98 µM.
Turning to `C/C(=N\NC(=N)N)c1ccccc1` [Compound 1010], at NPFF2 (R-SAT), the Emax was determined as 51% and the “NPFF2 pEC50” value is listed as 5.2.
For the compound `COc1ccc2ccccc2c1C=NNC(=N)N` [Compound 3007, 1-[1-(2-Methoxy-naphthalen-1-yl)methylideneamino]guanidine Hydrochloride], the Emax at NPFF2 (R-SAT) amounted to 84%; at NPFF1, 24%. For the same compound, the results for the EC50 at NPFF2 (setting [1]) and on NPFF1 were 6.31 µM and 7.94 µM, respectively.
As for `COc1ccc(/C=N/NC(=N)N)cc1I` [Compound 1005], at NPFF2 (R-SAT), the Emax was 70% and the “NPFF2 pEC50” value is reported as 5.5.
Consider `N=C(N)NN=Cc1cc(F)ccc1[N+](=O)[O-]` [Compound 2004, 1-(5-Fluoro-2-nitrobenzylideneamino)guanidine Hydrochloride], for which the Emax on NPFF2 (R-SAT) came out at 38%. Besides, the EC50 at NPFF2 (setting [1]) was 10 µM.
As for `C/C(=N\NC(=N)N)c1cc(Br)ccc1Br` [Compound 1006], at NPFF2 (R-SAT), the Emax worked out at 53%.
Still for that read-out and setting: under `N=C(N)N/N=C/c1ccc(Br)cc1` [Compound 1007] stands 102%.
Regarding `C=CCOc1ccc(C=NNC(=N)N)cc1Cl` [Compound 2042, 1-(4-Allyloxy-3-chlorobenzylideneamino)guanidine Hydrochloride], on NPFF2 (R-SAT), the Emax was 60%. In addition, the EC50 at NPFF2 (setting [1]) is 0.794 µM.
Regarding `CN(C)c1ccc(/C=N/NC(=N)N)cc1[N+](=O)[O-]` [Compound 1012], at NPFF2 (R-SAT), the Emax was determined as 51% and the “NPFF2 pEC50” value is 5.2.
On the same counts, the results for `COc1ccc(/C=N/NC(=N)N)cc1` [Compound 1014] are 97% and 5.0.
Consider `CCCCC/C(=N/NC(=N)N)c1cccc(C)c1` [Compound 1001], for which the Emax on NPFF2 (R-SAT) came to 49%.
`CCCC/C(=N\NC(=N)N)c1ccc(O)cc1` [Compound 1004]: the Emax at NPFF2 (R-SAT) was 106%.
For the compound `N=C(N)NN=Cc1c2ccccc2cc2ccccc12` [Compound 2006, 1-[(Anthracen-9-yl)methylideneamino]guanidine Hydrochloride], the Emax at NPFF2 (R-SAT) came out at 51%. For the same compound, the EC50 on NPFF2 (setting [1]) was 0.794 µM.
In the case of `CCCCC/C(=N\NC(=N)N)c1ccc(C)cc1` [Compound 1002], at NPFF2 (R-SAT), the Emax is 41% and the “NPFF2 pEC50” value came out at 6.2.
For `COc1ccc(C=NNC(=N)N)cc1Cl` [Compound 2043, 1-(3-Chloro-4-methoxybenzylideneamino)guanidine Hydrochloride], the Emax on NPFF2 (R-SAT) was determined as 47%. Also, the EC50 on NPFF2 (setting [1]) is 2 µM.
As to `N#CCCCCOc1ccc(C=NNC(=N)N)cc1Cl` [Compound 2044, 1-[3-Chloro-4-(4-cyanobutoxy)benzylideneamino]guanidine Hydrochloride], the Emax at NPFF2 (R-SAT) worked out at 45%. Further, at NPFF2 (setting [1]), the EC50 is 3.98 µM.
Taken in the same sequence, the figures for `CC(=NNC(=N)N)c1cccc(Br)c1` [Compound 2003, 1-[1-(3-Bromophenyl)ethylideneamino]guanidine Hydrochloride] were 49% and 1.58 µM.
On the same counts, the results for `N=C(N)NN=Cc1cccc(C(F)(F)F)c1` [Compound 2002, 1-[3-(Trifluoromethyl)benzylideneamino]guanidine Hydrochloride] are 39% and 2.51 µM.
